Laboratory results from patent US12187702B2, “Sulfonamideurea compounds” (Inflazome Limited, priority 2018, dated 2025).
Structures can show the parent of a compound that is named as a salt.

What was measured:
NLRP3 [1] = molecular target: T1, NLRP3 (Homo sapiens, UniProt Q96P20); assay: Human whole blood IL-1β release assay (LPS + nigericin, AlphaLisa); assay type: cell-based; parameters: Plate out 80 μl of whole blood containing 1 μg/ml of LPS; from tissue; host or cells: human whole blood from healthy donors
Method: For systemic delivery, the ability to inhibit NLRP3 when the compounds are present within the bloodstream is of great importance. For this reason, the NLRP3 inhibitory activity of a number of compounds in human whole blood was investigated in accordance with the following protocol.
Human whole blood in Li-heparin tubes was obtained from healthy donors from a volunteer donor panel. • 1. Plate out 80 μl of whole blood containing 1 μg/ml of LPS in 96-well, clear bottom cell culture plate (Corning #3585) • 2. Add 10 μl compound (8 points half-log dilution with 10 μM top dose) or vehicle (DMSO 0.1% FAC) to the appropriate wells • 3. Incubate for 3 hrs at 37° C., 5% CO2 • 4. Add 10 μl nigericin (Sigma #N7143) (10 μM FAC) to all wells • 5. Incubate for 1 hr at 37° C., 5% CO2 • 6. At the end of the incubation period, spin plates at 300×g for 5 mins to pellet cells and remove 20 μl of supernatant and add to 96-well v-bottom plates for IL-1β analysis (note: these plates containing the supernatants can be stored at −80° C. to be analysed at a later date) • 7. IL-1β was measured according to the manufacturer protocol (Perkin Elmer-AlphaLisa IL-1 Kit AL220F-5000) • 8. IC50 data is fitted to a non-linear regression equation (log inhibitor vs response-variable slope 4-parameters)

NLRP3 [2] = molecular target: T1, NLRP3; assay: THP-1 cells pyroptosis assay (LPS + nigericin, resazurin read-out); assay type: cell-based; parameters: Seed THP-1 cells (25,000 cells/well) containing 1.0 μg/ml LPS; host or cells: THP-1 cells
Method: THP-1 cells (ATCC #TIB-202) were grown in RPMI containing L-glutamine (Gibco #11835) supplemented with 1 mM sodium pyruvate (Sigma #S8636) and penicillin (100 units/ml)/streptomycin (0.1 mg/ml) (Sigma #P4333) in 10% Fetal Bovine Serum (FBS) (Sigma #F0804). The cells were routinely passaged and grown to confluency (˜10^6 cells/ml). On the day of the experiment, THP-1 cells were harvested and resuspended into RPMI medium (without FBS). The cells were then counted and viability (>90%) checked by Trypan blue (Sigma #T8154). Appropriate dilutions were made to give a concentration of 625,000 cells/ml. To this diluted cell solution was added LPS (Sigma #L4524) to give a 1 μg/ml Final Assay Concentration (FAC). 40 μl of the final preparation was aliquoted into each well of a 96-well plate. The plate thus prepared was used for compound screening.
The following method step-by-step assay was followed for compound screening. • 1. Seed THP-1 cells (25,000 cells/well) containing 1.0 μg/ml LPS in 40 μl of RPMI medium (without FBS) in 96-well, black walled, clear bottom cell culture plates coated with poly-D-lysine (VWR #734-0317) • 2. Add 5 μl compound (8 points half-log dilution, with 10 μM top dose) or vehicle (DMSO 0.1% FAC) to the appropriate wells • 3. Incubate for 3 hrs at 37° C., 5% CO2 • 4. Add 5 μl nigericin (Sigma #N7143) (FAC 5 μM) to all wells • 5. Incubate for 1 hr at 37° C., 5% CO2 • 6. At the end of the incubation period, spin plates at 300×g for 3 mins and remove supernatant • 7. Then add 50 μl of resazurin (Sigma #R7017) (FAC 100 μM resazurin in RPMI medium without FBS) and incubate plates for a further 1-2 hrs at 37° C. and 5% CO2 • 8. Plates were read in an Envision reader at Ex 560 nm and Em 590 nm • 9. IC50 data is fitted to a non-linear regression equation (log inhibitor vs response-variable slope 4-parameters)

[3] = human whole blood, 1 μg/ml LPS, 10 μM nigericin, IL-1β release, read-out: HWB IC50
[4] = THP-1 cells, 1 μg/ml LPS, 5 μM nigericin, NLRP3 inhibitory activity, read-out: THP IC50

T1 sequence (Q96P20 whole entry): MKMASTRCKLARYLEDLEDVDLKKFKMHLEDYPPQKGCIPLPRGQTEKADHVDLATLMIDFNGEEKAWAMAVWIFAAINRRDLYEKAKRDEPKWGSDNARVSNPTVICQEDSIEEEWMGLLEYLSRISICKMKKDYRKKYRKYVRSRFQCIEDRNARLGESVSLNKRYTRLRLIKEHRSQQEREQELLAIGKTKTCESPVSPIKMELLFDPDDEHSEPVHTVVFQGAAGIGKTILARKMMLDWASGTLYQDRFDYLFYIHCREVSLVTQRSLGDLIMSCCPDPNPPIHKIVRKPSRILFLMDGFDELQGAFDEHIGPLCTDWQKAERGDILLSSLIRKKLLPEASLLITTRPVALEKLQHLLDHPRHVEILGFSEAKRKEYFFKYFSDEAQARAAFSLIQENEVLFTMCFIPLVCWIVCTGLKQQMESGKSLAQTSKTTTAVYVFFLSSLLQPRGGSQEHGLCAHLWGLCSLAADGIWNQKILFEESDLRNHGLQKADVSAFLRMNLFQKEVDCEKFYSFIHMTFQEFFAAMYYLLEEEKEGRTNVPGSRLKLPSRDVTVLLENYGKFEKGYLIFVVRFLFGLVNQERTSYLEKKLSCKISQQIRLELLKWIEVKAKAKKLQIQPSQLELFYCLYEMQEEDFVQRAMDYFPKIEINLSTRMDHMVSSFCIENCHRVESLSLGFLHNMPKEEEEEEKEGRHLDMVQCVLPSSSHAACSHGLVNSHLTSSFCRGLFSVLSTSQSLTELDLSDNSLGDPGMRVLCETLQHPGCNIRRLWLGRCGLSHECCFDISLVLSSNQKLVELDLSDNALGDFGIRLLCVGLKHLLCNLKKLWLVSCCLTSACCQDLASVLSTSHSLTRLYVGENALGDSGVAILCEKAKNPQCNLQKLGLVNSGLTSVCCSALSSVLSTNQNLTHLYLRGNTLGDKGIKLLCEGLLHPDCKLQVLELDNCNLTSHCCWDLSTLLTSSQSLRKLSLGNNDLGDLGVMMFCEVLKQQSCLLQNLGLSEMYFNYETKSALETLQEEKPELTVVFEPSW

Row | IC50 (NLRP3 [1]; [3]) | IC50 (NLRP3 [2]; [4]) | SMILES | IC50 (NLRP3 [1]) | IC50 (NLRP3 [2])
1 | < 500 nM | < 500 nM | CN1C[C@H]2CN(S(=O)(=O)NC(=O)Nc3c4c(cc5c3CCC5)CCC4)C[C@H]21 [Example 92, (1S,5S)—N-((1,2,3,5,6,7-Hexahydro-s-indacen-4-yl)carbamoyl)-6-methyl-3,6-diazabicyclo[3.2.0]heptane-3-sulfonamide, potassium salt] | – | –
2 | < 500 nM | < 500 nM | CN1C[C@@H]2CN(S(=O)(=O)NC(=O)Nc3c4c(cc5c3CCC5)CCC4)C[C@@H]21 [Example 93, (1R,5R)—N-((1,2,3,5,6,7-Hexahydro-s-indacen-4-yl)carbamoyl)-6-methyl-3,6-diazabicyclo[3.2.0]heptane-3-sulfonamide, potassium salt] | – | –
3 | < 500 nM | < 500 nM | CN1CC[C@@H](NS(=O)(=O)NC(=O)Nc2c3c(cc4c2CCC4)CCC3)C1 [Example 89, 3-((R)—N-(1-Methylpyrrolidin-3-yl)sulfamoyl)-1-(1,2,3,5,6,7-hexahydro-s-indacen-4-yl)urea, potassium salt] | – | –
4 | < 5000 nM | < 1000 nM | CN1CCC[C@@H]1CN(C)S(=O)(=O)NC(=O)Nc1c2c(cc3c1CCC3)C=CC2 [Example 112, (R)—(N-Methyl-N-((1-methylpyrrolidin-2-yl)methyl)sulfamoyl)((1,2,3,5-tetrahydro-s-indacen-4-yl)carbamoyl)amide, potassium salt] | – | –
5 | < 1000 nM | < 500 nM | CN1CCC[C@H]1CN(C)S(=O)(=O)NC(=O)Nc1c2c(cc3c1CCC3)CCC2 [Example 115, 3-((S)—N-Methyl-N-((-1-methylpyrrolidin-2-yl)methyl)sulfamoyl)-1-(1,2,3,5,6,7-hexahydro-s-indacen-4-yl)urea, sodium salt] | – | –
6 | < 1000 nM | < 500 nM | COc1cc(-c2c(C)cc3c(c2NC(=O)NS(=O)(=O)N(C)C)CCC3)ccn1 [Example 114, N-((5-(2-Methoxypyridin-4-yl)-6-methyl-2,3-dihydro-1H-inden-4-yl)carbamoyl)(N,N-dimethylsulfamoyl)amide] | – | –
7 | < 500 nM | < 1000 nM | CN1CC[C@H](NS(=O)(=O)NC(=O)Nc2c3c(cc4c2CCC4)CCC3)C1 [Example 88, 3-((S)—N-(1-Methylpyrrolidin-3-yl)sulfamoyl)-1-(1,2,3,5,6,7-hexahydro-s-indacen-4-yl)urea, potassium salt] | – | –
8 | < 5000 nM | < 1000 nM | CN1CC2(CCN2S(=O)(=O)NC(=O)Nc2c3c(cc4c2CCC4)CCC3)C1 [Example 91, N-((1,2,3,5,6,7-Hexahydro-s-indacen-4-yl)carbamoyl)-6-methyl-1,6-diazaspiro[3.3]heptane-1-sulfonamide, potassium salt] | – | –

More lines, now with the values behind:

Row | SMILES | IC50 (NLRP3 [1]; [3]) | IC50 (NLRP3 [2]; [4]) | IC50 (NLRP3 [1]) | IC50 (NLRP3 [2])
9 | O=C(Nc1c2c(cc3c1CCC3)CCC2)NS(=O)(=O)NCCN1CCC1 [Example 35, 3-(N-(2-(Azetidin-1-yl)ethyl)sulfamoyl)-1-(1,2,3,5,6,7-hexahydro-s-indacen-4-yl)urea, potassium salt] | < 1000 nM | < 5000 nM | – | –
10 | Cc1cc2c(c(NC(=O)NS(=O)(=O)N(C)C)c1-c1ccnc(OC3CCN(C)CC3)c1)CCC2 [Example 113, N-((6-Methyl-5-(2-((1-methylpiperidin-4-yl)oxy)pyridin-4-yl)-2,3-dihydro-1H-inden-4-yl)carbamoyl)N,N-dimethylsulfamide] | – | – | < 500 nM | < 500 nM
11 | O=C(Nc1c2c(cc3c1CCC3)CCC2)NS(=O)(=O)N1CC2CCC(C1)N2C1CC1 [Example 75, 8-Cyclopropyl-N-((1,2,3,5,6,7-hexahydro-s-indacen-4-yl)carbamoyl)-3,8-diazabicyclo[3.2.1]octane-3-sulfonamide, potassium salt] | – | – | < 5000 nM | < 500 nM
12 | O=C(Nc1c2c(cc3c1CCC3)CCC2)NS(=O)(=O)N1CCC(N2CCC2)C1 (stereo not drawn) [Example 73, 3-(Azetidin-1-yl)-N-((1,2,3,5,6,7-hexahydro-s-indacen-4-yl)carbamoyl)pyrrolidine-1-sulfonamide, potassium salt] | < 5000 nM | < 1000 nM | – | –
13 | CN1CCC(NS(=O)(=O)NC(=O)Nc2c3c(cc4c2CCC4)CCC3)C1 (stereo not drawn) [Example 44, 3-(N-(1-Methylpyrrolidin-3-yl))sulfamoyl)-1-(1,2,3,5,6,7-hexahydro-s-indacen-4-yl)urea, potassium salt] | < 500 nM | < 1000 nM | – | –
14 | CN(C)CCN(CCCc1ccccc1)S(=O)(=O)NC(=O)Nc1c2c(cc3c1CCC3)CCC2 [Example 58, 3-(N-(2-(Dimethylamino)ethyl)-N-(3-phenylpropyl)sulfamoyl)-1-(1,2,3,5,6,7-hexahydro-s-indacen-4-yl)urea, potassium salt] | < 5000 nM | < 500 nM | – | –
15 | CC(C)NCCNS(=O)(=O)NC(=O)Nc1c2c(cc3c1CCC3)CCC2 [Example 26] | < 1000 nM | < 500 nM | – | –
16 | CN(C)CCN(Cc1ccccc1)S(=O)(=O)NC(=O)Nc1c2c(cc3c1CCC3)CCC2 [Example 10, 3-(N-Benzyl-N-(2-(dimethylamino)ethyl)sulfamoyl)-1-(1,2,3,5,6,7-hexahydro-s-indacen-4-yl)urea, potassium salt] | < 5000 nM | < 5000 nM | – | –
17 | CN1CCCC(NS(=O)(=O)NC(=O)Nc2c3c(cc4c2CCC4)CCC3)C1 (stereo not drawn) [Example 52, 3-(N-(1-Methylpiperidin-3-yl)sulfamoyl)-1-(1,2,3,5,6,7-hexahydro-s-indacen-4-yl)urea, potassium salt] | < 500 nM | < 500 nM | – | –
18 | CN1CCCC1CN(C)S(=O)(=O)NC(=O)Nc1c2c(cc3c1CCC3)CCC2 (stereo not drawn) [Example 80, 3-(N-Methyl-N-((1-methylpyrrolidin-2-yl)methyl)sulfamoyl)-1-(1,2,3,5,6,7-hexahydro-s-indacen-4-yl)urea, potassium salt] | < 500 nM | < 500 nM | – | –
19 | CCN1CC2CN(S(=O)(=O)NC(=O)Nc3c4c(cc5c3CCC5)CCC4)CC21 (stereo not drawn) [Example 85, 6-Ethyl-N-((1,2,3,5,6,7-hexahydro-s-indacen-4-yl)carbamoyl)-3,6-diazabicyclo[3.2.0]heptane-3-sulfonamide] | < 500 nM | < 500 nM | – | –
20 | CN(C)C1CCN(S(=O)(=O)NC(=O)Nc2c3c(cc4c2CCC4)CCC3)C1 (stereo not drawn) [Example 9, 3-(Dimethylamino)-N-((1,2,3,5,6,7-hexahydro-s-indacen-4-yl)carbamoyl)pyrrolidine-1-sulfonamide, potassium salt] | < 500 nM | < 500 nM | – | –
21 | CC(C)NCCN(C(C)C)S(=O)(=O)NC(=O)Nc1c2c(cc3c1CCC3)CCC2 [Example 28, 3-(N-Isopropyl-N-(2-(isopropylamino)ethyl))sulfamoyl)-1-(1,2,3,5,6,7-hexahydro-s-indacen-4-yl)urea, potassium salt] | < 500 nM | < 500 nM | – | –
22 | CCN(CCN(C)C)S(=O)(=O)NC(=O)Nc1c2c(cc3c1CCC3)CCC2 [Example 39, 3-(N-(2-(Dimethylamino)ethyl)-N-ethylsulfamoyl))-1-(1,2,3,5,6,7-hexahydro-s-indacen-4-yl)urea, potassium salt] | < 1000 nM | < 500 nM | – | –
23 | CN(C)C1CCCN(S(=O)(=O)NC(=O)Nc2c3c(cc4c2CCC4)CCC3)C1 (stereo not drawn) [Example 15, potassium salt] | < 500 nM | < 500 nM | – | –
24 | CN1CCC1CNS(=O)(=O)NC(=O)Nc1c2c(cc3c1CCC3)CCC2 (stereo not drawn) [Example 31, 3-(N-((1-Methylazetidin-2-yl)methyl))sulfamoyl)-1-(1,2,3,5,6,7-hexahydro-s-indacen-4-yl)urea, potassium salt] | < 500 nM | < 500 nM | – | –
